Results as given in US9708251B2, “Unsaturated fatty alcohol alkoxylates from natural oil metathesis” (Stepan Company, priority 2012, dated 2017).
Blank lines part the entries; values can stand above or below the molecule they belong to.

Legend:
[1] = Surfactant phase behavior study (cross-polarized microscopy); format: physicochemical; details: room temperature
Experimental: Phase behavior is observed using an Olympus BH-2 cross-polarized microscope at 100-400× and room temperature (20° C. to 22° C.). The inventive monounsaturated alcohol ethoxylates are compared with their saturated analogs.
Samples are prepared by diluting the most concentrated product gradually with deionized water. When the surfactant concentration approaches a phase transition, the concentration is varied at 2-4% intervals to estimate the phase boundary. The actives level reported in Table 4 for each phase boundary is within ±5% of the true boundary.
Samples are loaded between a microscope slide and cover glass and are allowed to equilibrate before observation. Microscopic texture is analyzed and used to determine the phase. For some samples, an AR 2000 rheometer (TA Instruments) is used to measure viscosity at 25° C. to further verify phase behavior.

[2] = Emulsion stability testing of nonionic emulsifiers, Hallcomid solvent series; format: physicochemical; design: key: C = creamy; CO = creamy oil; O = oil; GC = gritty cream; NS = no separation; OC = oily cream; details: Bifenthrin 240 g/L in Hallcomid M-8-10, 34 ppm water
Experimental: (§1) Nonionic samples contain a low amount of water (<1%) and are prepared as emulsifiable concentrates with three pesticides using two different solvent systems. In the aromatic solvent series, the nonionic sample replaces Toximul® 8240 (castor oil ethoxylate, 36 POE, Stepan), and in the Hallcomid™ (N,N-dimethylcaprylamide/N,N-dimethylcapramide, Stepan) solvent series, the nonionic sample replaces Ninex® MT-630F.
(§2) Hallcomid Solvent Series.
(§3) Sample preparation: The surfactants are combined and stirred until homogeneous, with the nonionic sample melted if needed prior to combination. Controls 1-3 are made by using Ninex MT-630F in the amounts indicated instead of the nonionic sample.
(§4) Emulsion Stability Testing
(§5) A Mohr pipette is used to feed pesticide/surfactant concentrates to each cylinder.

[3] = Emulsion stability testing of nonionic emulsifiers, aromatic solvent series; format: physicochemical; design: key to 24 h separation, appearance / 1 h separation, appearance / 1 h separation, amount: C = creamy; CO = creamy oil; O = oil; GC = gritty cream; NS = no separation; OC = oily cream; key to Spon. (spontaneity): G = good; F = fair; P = poor
Experimental: as §1
Sample preparation: Ninate® 60E (calcium alkylbenzenesulfonate, Stepan) and the test sample are stirred until homogeneous. […] Controls 1-3 are made by using Toximul 8240 in the amounts indicated instead of the nonionic sample.
Formulations: • 1. Bifenthrin, 240 g/L (2.99 g), Aromatic 100 (ExxonMobil, 8.05 g), Ninate 60E (0.38 g), and nonionic sample or Toximul 8240 (0.58 g). • 2. 2,4-D ester, 480 g/L (8.90 g), Exxsol® D-110 (ExxonMobil, 2.50 g), Ninate 60E (0.36 g), and nonionic sample or Toximul 8240 (0.24 g). • 3. Tebuconazole, 360 g/L (4.45 g), N-methyl-2-pyrrolidone (6.35 g), Ninate 60E (0.48 g), nonionic sample or Toximul 8240 (0.72 g).
as §4, §5

[4] = Emulsion stability testing of nonionic emulsifiers, Hallcomid solvent series; format: physicochemical; design: key to 24 h separation, appearance / 1 h separation, appearance / 1 h separation, amount: C = creamy; CO = creamy oil; O = oil; GC = gritty cream; NS = no separation; OC = oily cream; key to Spon. (spontaneity): G = good; F = fair; P = poor
Experimental: as §1, §2, §3, §4, §5

[5] = Agrichemical solvent analysis: active solubility; format: physicochemical; details: room temperature
Experimental: Solvency strength of potential agrichemical solvents is evaluated by identifying the solubility level of three standard pesticides in the solvent by weight percent: 2,4-D acid, imidacloprid, and tebuconazole. […] The active material is also accurately weighed before addition. Initial amounts of active material are approximately: 2,4-D: 0.3 g; imidacloprid: 0.02 g; tebuconazole: 0.3 g. Solvent and pesticide active are combined, allowed to mix for 1 h at room temperature, and then inspected for the presence of undissolved active material. Additional active material is added in appropriately small increments until it no longer dissolves completely. This mixture is then stirred for 24 h at room temperature, and if the active has completely dissolved, additional active ingredient is added and the mixture is stirred another 24 h at room temperature. The percent solubility is recorded, and performance is compared with that of a standard agricultural solvent.

[6] = 0.4 wt. % active, 342 ppm hard water
Experimental: Surfactant solution (100 mL) is carefully transferred to a stainless-steel mixing cup, then mixed at high speed (27K rpm) using a Hamilton Beach mixer for 10 s. The contents are quickly poured into a 100-mL graduated cylinder to the 100-mL mark, and a stopwatch is immediately started. The amount of liquid settling in the cylinder is recorded every 15 s for 4 min. Less liquid drained indicates greater foam stability.

[7] = 2,4-D ester 480 g/L in Exxsol D-110, 34 ppm water
[8] = 2,4-D ester 480 g/L in Exxsol D-110, 1000 ppm water
[9] = Bifenthrin 240 g/L in Aromatic 100, 34 ppm water
[10] = Bifenthrin 240 g/L in Aromatic 100, 1000 ppm water
[11] = Tebuconazole 360 g/L in N-methyl-2-pyrrolidone, 34 ppm water
[12] = Tebuconazole 360 g/L in N-methyl-2-pyrrolidone, 1000 ppm water
[13] = 2,4-D diester 480 g/L in Hallcomid M-8-10, 34 ppm water
[14] = 2,4-D diester 480 g/L in Hallcomid M-8-10, 1000 ppm water
[15] = Bifenthrin 240 g/L in Hallcomid M-8-10, 34 ppm water
[16] = Bifenthrin 240 g/L in Hallcomid M-8-10, 1000 ppm water
[17] = Tebuconazole 360 g/L in Hallcomid M-8-10, 34 ppm water
[18] = Tebuconazole 360 g/L in Hallcomid M-8-10, 1000 ppm water

Cubic phase region ([1]; in deionized water): 28-50 % Actives Level
Hexagonal phase region ([1]; in deionized water): 50-73 % Actives Level
Paste phase region ([1]; in deionized water): 93-100 % Actives Level
Molecule: CCCCCCCCCCCCOCCOCCOCCOCCOCCOCCOCCOCCOCCOCCOCCOCCOCCOCCOCCO [sat. analog of A12-16]

24 h separation, amount [2]: NS
1 h separation, amount [3, 7]: 4.5 mL
1 h separation, appearance [3, 7]: CO
24 h separation, amount [3, 7]: 2 O, 1 CO, 2 C
Spon. (spontaneity) [3, 7]: P
1 h separation, amount [3, 8]: 3.8 mL
1 h separation, appearance [3, 8]: O
24 h separation, amount [3, 8]: 4 mL
24 h separation, appearance [3, 8]: O
Spon. (spontaneity) [3, 8]: P
1 h separation, amount [3, 9]: 7.5 mL
1 h separation, appearance [3, 9]: CO
24 h separation, amount [3, 9]: 3 O, 3 CO
Spon. (spontaneity) [3, 9]: P
1 h separation, amount [3, 10]: 6 mL
1 h separation, appearance [3, 10]: O
24 h separation, amount [3, 10]: 6 mL
24 h separation, appearance [3, 10]: O
Spon. (spontaneity) [3, 10]: P
1 h separation, amount [3, 11]: 2 mL
1 h separation, appearance [3, 11]: GC
24 h separation, amount [3, 11]: 3 mL
24 h separation, appearance [3, 11]: GC
Spon. (spontaneity) [3, 11]: P
1 h separation, amount [3, 12]: 3 mL
1 h separation, appearance [3, 12]: GC
24 h separation, amount [3, 12]: 4 mL
24 h separation, appearance [3, 12]: GC
Spon. (spontaneity) [3, 12]: P
1 h separation, amount [4, 13]: 6 mL
1 h separation, appearance [4, 13]: C
24 h separation, amount [4, 13]: 9.5 mL
24 h separation, appearance [4, 13]: C
Spon. (spontaneity) [4, 13]: F
1 h separation, amount [4, 14]: 6.5 mL
1 h separation, appearance [4, 14]: C
24 h separation, amount [4, 14]: 8 mL
24 h separation, appearance [4, 14]: C
Spon. (spontaneity) [4, 14]: F
1 h separation, amount [4, 15]: NS
Spon. (spontaneity) [4, 15]: F
1 h separation, amount [4, 16]: Tr. GC, 12 C
24 h separation, amount [4, 16]: 3.5 O, 3 CO
Spon. (spontaneity) [4, 16]: F
1 h separation, amount [4, 17]: 3 mL
1 h separation, appearance [4, 17]: C
24 h separation, amount [4, 17]: 6.5 mL
24 h separation, appearance [4, 17]: C
Spon. (spontaneity) [4, 17]: F
1 h separation, amount [4, 18]: 4 mL
1 h separation, appearance [4, 18]: C
24 h separation, amount [4, 18]: 5.8 mL
24 h separation, appearance [4, 18]: C
Spon. (spontaneity) [4, 18]: F
Molecule: C=CCCCCCCCCOCCO [A10-4]

Cubic phase region ([1]; in deionized water): 37-55 % Actives Level
Paste phase region ([1]; in deionized water): 93-100 % Actives Level
Molecule: CCCCCCCCCCOCCOCCOCCOCCOCCOCCOCCOCCOCCOCCOCCOCCOCCOCCOCCO [sat. analog of A10-16]

Lamellar phase region ([1]; in deionized water): 40-83 % Actives Level
Lamellar/Isotropic phase region ([1]; in deionized water): 30-40 % Actives Level
Molecule: CCCCCCCCCCCCOCCOCCOCCOCCOCCO [sat. analog of A12-10]

Hexagonal phase region ([1]; in deionized water): 30-67 % Actives Level
Lamellar phase region ([1]; in deionized water): 67-90 % Actives Level
Molecule: CCCCCCCCCCCCOCCOCCOCCOCCOCCOCCOCCO [sat. analog of A12-13]

solubility of 2,4-D Acid in the solvent [5]: 45.4 weight percent
solubility of Imidacloprid in the solvent [5]: 4.2 weight percent
solubility of Tebuconazole in the solvent [5]: 38.8 weight percent
Molecule: CCCCCCCCCC(=O)N(C)C [N,N-dimethylcapramide, reference compound]

Liquid volume at drain time 0.5 min [6]: 0.25 mL
Liquid volume at drain time 1.0 min [6]: 1.00 mL
Liquid volume at drain time 1.5 min [6]: 2.00 mL
Liquid volume at drain time 2.0 min [6]: 3.00 mL
Liquid volume at drain time 2.5 min [6]: 4.00 mL
Liquid volume at drain time 3.0 min [6]: 5.25 mL
Liquid volume at drain time 3.5 min [6]: 6.50 mL
Liquid volume at drain time 4.0 min [6]: 7.50 mL
Molecule: ammonium alkyl ether sulfate [Control 3, reference compound]

solubility of 2,4-D Acid in the solvent [5]: 39.5 weight percent
solubility of Imidacloprid in the solvent [5]: 29.3 weight percent
solubility of Tebuconazole in the solvent [5]: 62.2 weight percent
Molecule: CN1CCCC1=O [N-methyl-2-pyrrolidone, reference compound]

Lamellar phase region ([1]; in deionized water): 43-60 % Actives Level
Molecule: CCCCCCCCCCOCCOCCOCCOCCOCCOCCOCCO [sat. analog of A10-13]

combined isotropic phases (clear and opaque), share of the total [1]: about 38%
Isotropic Clear phase region ([1]; in deionized water): 90-100 % Actives Level
Isotropic Opaque phase region ([1]; in deionized water): 0-28 % Actives Level
Lamellar phase region ([1]; in deionized water): 28-90 % Actives Level
Molecule: CCCCCCCCCCCCOCCOCCOCCO [sat. analog of A12-7]

combined isotropic phases (clear and opaque), share of the total [1]: about 38%
Isotropic Clear phase region ([1]; in deionized water): 90-100 % Actives Level
Isotropic Opaque phase region ([1]; in deionized water): 0-28 % Actives Level
Lamellar phase region ([1]; in deionized water): 28-90 % Actives Level
Molecule: CCCCCCCCCCOCCOCCOCCO [sat. analog of A10-7]

Lamellar phase region ([1]; in deionized water): 55-80 % Actives Level
Molecule: CCCCCCCCCCOCCOCCOCCOCCOCCO [sat. analog of A10-10]

24 h separation, amount [2]: NS
1 h separation, amount [3, 7]: 6 mL
1 h separation, appearance [3, 7]: C
24 h separation, amount [3, 7]: 6.7 mL
24 h separation, appearance [3, 7]: C
Spon. (spontaneity) [3, 7]: P
1 h separation, amount [3, 8]: 4.7 mL
1 h separation, appearance [3, 8]: O
24 h separation, amount [3, 8]: 4.5 mL
24 h separation, appearance [3, 8]: O
Spon. (spontaneity) [3, 8]: P
1 h separation, amount [3, 9]: 8 mL
1 h separation, appearance [3, 9]: C
Spon. (spontaneity) [3, 9]: P
1 h separation, amount [3, 10]: 5.2 mL
1 h separation, appearance [3, 10]: O
24 h separation, amount [3, 10]: 5.2 mL
24 h separation, appearance [3, 10]: O
Spon. (spontaneity) [3, 10]: P
1 h separation, amount [3, 11]: 2.3 mL
1 h separation, appearance [3, 11]: C
24 h separation, amount [3, 11]: 2.5 mL
24 h separation, appearance [3, 11]: GC
Spon. (spontaneity) [3, 11]: P
1 h separation, amount [3, 12]: 2.3 mL
1 h separation, appearance [3, 12]: C
24 h separation, amount [3, 12]: 2.7 mL
24 h separation, appearance [3, 12]: GC
Spon. (spontaneity) [3, 12]: P
1 h separation, amount [4, 13]: 6.2 mL
1 h separation, appearance [4, 13]: C
24 h separation, amount [4, 13]: 8.8 mL
24 h separation, appearance [4, 13]: C
Spon. (spontaneity) [4, 13]: F
1 h separation, amount [4, 14]: 6.9 mL
1 h separation, appearance [4, 14]: C
24 h separation, amount [4, 14]: 8.6 mL
24 h separation, appearance [4, 14]: C
Spon. (spontaneity) [4, 14]: F
1 h separation, amount [4, 15]: NS
Spon. (spontaneity) [4, 15]: G
1 h separation, amount [4, 16]: 11 mL
1 h separation, appearance [4, 16]: C
24 h separation, amount [4, 16]: 2 O, 3 CO
Spon. (spontaneity) [4, 16]: F
1 h separation, amount [4, 17]: 3.1 mL
1 h separation, appearance [4, 17]: C
24 h separation, amount [4, 17]: 5.9 mL
24 h separation, appearance [4, 17]: C
Spon. (spontaneity) [4, 17]: F
1 h separation, amount [4, 18]: 3.1 mL
1 h separation, appearance [4, 18]: C
24 h separation, amount [4, 18]: 6 mL
24 h separation, appearance [4, 18]: C
Spon. (spontaneity) [4, 18]: F
Molecule: CCC=CCCCCCCCCOCCO (mixture of isomers) [A12-4]
